Results as given in patent US9718774B2, “Indole carboxamide derivatives as P2X7 receptor antagonist” (ACTELION PHARMACEUTICALS LTD, priority 2012, dated 2017).

Target: T1, human recombinant P2X7 receptor (Homo sapiens, UniProt Q99572)
T1 construct: expressed in transfected cells
T1 sequence (Q99572 1-595): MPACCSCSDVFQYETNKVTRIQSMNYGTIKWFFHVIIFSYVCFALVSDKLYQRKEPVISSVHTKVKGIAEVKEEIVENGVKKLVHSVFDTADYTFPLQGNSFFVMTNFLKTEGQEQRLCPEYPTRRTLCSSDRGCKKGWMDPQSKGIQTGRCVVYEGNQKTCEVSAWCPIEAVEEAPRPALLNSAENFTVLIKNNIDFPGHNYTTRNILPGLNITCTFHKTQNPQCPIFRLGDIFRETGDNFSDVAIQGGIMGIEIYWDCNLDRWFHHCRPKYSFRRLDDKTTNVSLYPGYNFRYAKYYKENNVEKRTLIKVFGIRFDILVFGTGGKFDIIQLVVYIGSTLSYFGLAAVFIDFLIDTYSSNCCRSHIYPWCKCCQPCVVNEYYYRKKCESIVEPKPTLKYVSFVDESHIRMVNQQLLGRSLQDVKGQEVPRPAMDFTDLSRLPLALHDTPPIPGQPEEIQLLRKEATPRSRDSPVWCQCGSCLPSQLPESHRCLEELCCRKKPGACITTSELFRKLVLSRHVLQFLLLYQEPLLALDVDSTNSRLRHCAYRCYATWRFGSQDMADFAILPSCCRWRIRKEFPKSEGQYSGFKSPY
Assay: YO-PRO assay: P2X7 receptor antagonistic activity in HEK cells stably expressing P2X7
Assay type: cell-based
Conditions: IC50, antagonistic activity with respect to the P2X7 receptor
In short: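 HEK cells stably transfected with human P2X7 (cloned from blood cDNA) were loaded with 0.5 μM YO-PRO-1. They were exposed to antagonist (10 concentrations, top 10 μM, 1/3 steps, duplicate) together with 250 μM ATP for 90 min, and dye uptake was read by FLIPR at ex 485/em 530. IC50 from maximum fluorescence versus concentration.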

SMILES | IC50 [nM]
Cc1ncc(C(CNC(=O)c2ccc3[nH]ccc3c2Cl)N2CC3CC(C2)O3)cn1 (stereo not shown) [Example 95, 4-Chloro-1H-indole-5-carboxylic acid [2-(2-methyl-pyrimidin-5-yl)-2-(6-oxa-3-aza-bicyclo[3.1.1]hept-3-yl)-ethyl]-amide] | 28

Same assay, conditions: antagonistic activity with respect to the P2X7 receptor, read-out: IC50

SMILES | IC50 [nM]
CCc1c(C(=O)NCC(c2cnc(C)nc2)N2CCOCC2)ccc2[nH]ccc12 (racemic) [Example 101, rac-4-Ethyl-1H-indole-5-carboxylic acid [2-(2-methyl-pyrimidin-5-yl)-2-morpholin-4-yl-ethyl]-amide] | 30
Cc1ncc(C(CNC(=O)c2ccc3[nH]ccc3c2Cl)N2CCCOCC2)cn1 (racemic) [Example 81, rac-4-Chloro-1H-indole-5-carboxylic acid [2-(2-methyl-pyrimidin-5-yl)-2-[1,4]oxazepan-4-yl-ethyl]-amide] | 26
COc1cc(C(=O)NCC(c2cnc(C)nc2)N2CCOCC2)c(F)c2cc[nH]c12 (racemic) [Example 118, rac-4-Fluoro-7-methoxy-1H-indole-5-carboxylic acid [2-(2-methyl-pyrimidin-5-yl)-2-morpholin-4-yl-ethyl]-amide] | 20
COc1ccc(C(CNC(=O)c2ccc3[nH]ccc3c2Cl)N2CCOCC2)cn1 (racemic) [Example 11, rac-4-Chloro-1H-indole-5-carboxylic acid [2-(6-methoxy-pyridin-3-yl)-2-morpholin-4-yl-ethyl]-amide] | 14
Cc1ncc(C(CNC(=O)c2ccc3[nH]ccc3c2Cl)C2CCOCC2)cn1 (racemic) [Example 51, rac-4-Chloro-1H-indole-5-carboxylic acid [2-(2-methyl-pyrimidin-5-yl)-2-(tetrahydro-pyran-4-yl)-ethyl]-amide] | 16
Cc1ncc(C(CNC(=O)c2ccc3[nH]ccc3c2Cl)N2CCOCC2)cn1 (single isomer, unassigned) [Example 3, 4-Chloro-1H-indole-5-carboxylic acid [2-(2-methyl-pyrimidin-5-yl)-2-morpholin-4-yl-ethyl]-amide] | 7.9
Cc1ncc(C(CNC(=O)c2ccc3[nH]ccc3c2C)N2CCOCC2)cn1 (racemic) [Example 100, rac-4-Methyl-1H-indole-5-carboxylic acid [2-(2-methyl-pyrimidin-5-yl)-2-morpholin-4-yl-ethyl]-amide] | 19
Cc1ncc(C(CNC(=O)c2ccc3[nH]ccc3c2Cl)OC2CCCC2)cn1 (racemic) [Example 52, rac-4-Chloro-1H-indole-5-carboxylic acid [2-cyclopentyloxy-2-(2-methyl-pyrimidin-5-yl)-ethyl]-amide] | 32
Cn1cc(C(CNC(=O)c2ccc3[nH]ccc3c2Cl)N2CCOCC2)cn1 (racemic) [Example 28, rac-4-Chloro-1H-indole-5-carboxylic acid [2-(1-methyl-1H-pyrazol-4-yl)-2-morpholin-4-yl-ethyl]-amide] | 66
O=C(NCC(c1ccc(Oc2ccccc2)cc1)N1CCCCC1)c1ccc2[nH]ccc2c1Cl (racemic) [Example 57, rac-4-Chloro-1H-indole-5-carboxylic acid [2-(4-phenoxy-phenyl)-2-piperidin-1-yl-ethyl]-amide] | 187
Cc1ncc(C(CNC(=O)c2ccc3[nH]ccc3c2Cl)NCC(C)C)cn1 (racemic) [Example 85, rac-4-Chloro-1H-indole-5-carboxylic acid [2-isobutylamino-2-(2-methyl-pyrimidin-5-yl)-ethyl]-amide] | 303
Cc1noc(C)c1C(CNC(=O)c1ccc2[nH]ccc2c1Cl)N1CCOCC1 (racemic) [Example 53, rac-4-Chloro-1H-indole-5-carboxylic acid [2-(3,5-dimethyl-isoxazol-4-yl)-2-morpholin-4-yl-ethyl]-amide] | 1990
O=C(NCC(c1cccnn1)N1CCOCC1)c1ccc2[nH]ccc2c1Cl (racemic) [Example 90, rac-4-Chloro-1H-indole-5-carboxylic acid (2-morpholin-4-yl-2-pyridazin-3-yl-ethyl)-amide] | 1620
CC(C)CC(CNC(=O)c1ccc2[nH]ccc2c1Cl)c1ccc(Cl)nc1 (racemic) [Example 66, rac-4-Chloro-1H-indole-5-carboxylic acid [2-(6-chloro-pyridin-3-yl)-4-methyl-pentyl]-amide] | 32
O=C(NCC(c1cc(F)cc(F)c1)N1CCOCC1)c1ccc2[nH]ccc2c1Cl (racemic) [Example 18, rac-4-Chloro-1H-indole-5-carboxylic acid [2-(3,5-difluoro-phenyl)-2-morpholin-4-yl-ethyl]-amide] | 19
CCOc1cc(C(=O)NCC(c2cnc(C)nc2)N2CCOCC2)c(Cl)c2cc[nH]c12 (racemic) [Example 110, rac-4-Chloro-7-ethoxy-1H-indole-5-carboxylic acid [2-(2-methyl-pyrimidin-5-yl)-2-morpholin-4-yl-ethyl]-amide] | 13
O=C(NCC(c1ccc(F)cn1)N1CCCCC1)c1ccc2[nH]ccc2c1Cl (racemic) [Example 32, rac-4-Chloro-1H-indole-5-carboxylic acid [2-(5-fluoro-pyridin-2-yl)-2-piperidin-1-yl-ethyl]-amide] | 232
CC(C)(C)OC(=O)N1CCC(C(CNC(=O)c2ccc3[nH]ccc3c2Cl)c2cccnc2)CC1 (racemic) [Example 19, rac-4-{2-[(4-Chloro-1H-indole-5-carbonyl)-amino]-1-pyridin-3-yl-ethyl}-piperidine-1-carboxylic acid tent-butyl ester] | 35
Cc1ncc(C(CNC(=O)c2ccc3[nH]ccc3c2Cl)N(C)Cc2ccccc2)cn1 (racemic) [Example 87, rac-4-Chloro-1H-indole-5-carboxylic acid [2-(benzyl-methyl-amino)-2-(2-methyl-pyrimidin-5-yl)-ethyl]-amide] | 2650
Cn1cc(C(CNC(=O)c2ccc3[nH]ccc3c2Cl)N2CCCCC2)cn1 (racemic) [Example 29, rac-4-Chloro-1H-indole-5-carboxylic acid [2-(1-methyl-1H-pyrazol-4-yl)-2-piperidin-1-yl-ethyl]-amide] | 161
O=C(NCC(c1cccc(F)c1)N1CCCCC1)c1ccc2[nH]ccc2c1Cl (racemic) [Example 43, rac-4-Chloro-1H-indole-5-carboxylic acid [2-(3-fluoro-phenyl)-2-piperidin-1-yl-ethyl]-amide] | 163
O=C(NCC(c1c(F)cc(F)cc1F)N1CCCCC1)c1ccc2[nH]ccc2c1Cl (racemic) [Example 30, rac-4-Chloro-1H-indole-5-carboxylic acid [2-piperidin-1-yl-2-(2,4,6-trifluoro-phenyl)-ethyl]-amide] | 1300
Cc1ncc([C@H](CNC(=O)c2ccc3[nH]ccc3c2Cl)N2CCCCC2C)cn1 (mixture of isomers) [Example 77, 4-Chloro-1H-indole-5-carboxylic acid [(R)-2-(2-methyl-piperidin-1-yl)-2-(2-methyl-pyrimidin-5-yl)-ethyl]-amide] | 87
CCC(CC)C(CNC(=O)c1ccc2[nH]ccc2c1Cl)c1cncnc1 (racemic) [Example 88, rac-4-Chloro-1H-indole-5-carboxylic acid (3-ethyl-2-pyrimidin-5-yl-pentyl)-amide] | 15
Cc1ncc(C(CNC(=O)c2cc(F)c3[nH]ccc3c2F)N2CCOCC2)cn1 (racemic) [Example 117, rac-4,7-Difluoro-1H-indole-5-carboxylic acid [2-(2-methyl-pyrimidin-5-yl)-2-morpholin-4-yl-ethyl]-amide] | 118
O=C(NCC(c1cnc(C(F)(F)F)nc1)N1CCOCC1)c1ccc2[nH]ccc2c1Cl (racemic) [Example 1, rac-4-Chloro-1H-indole-5-carboxylic acid [2-morpholin-4-yl-2-(2-trifluoromethyl-pyrimidin-5-yl)-ethyl]-amide] | 3.9
O=C(NCC(c1ccnc(O)c1)N1CCOCC1)c1ccc2[nH]ccc2c1Cl (racemic) [Example 91, rac-4-Chloro-1H-indole-5-carboxylic acid [2-morpholin-4-yl-2-(2-hydroxypyridin-4-yl)-ethyl]-amide] | 353
O=C(NCC(c1ccc(F)cc1F)N1CCOCC1)c1ccc2[nH]ccc2c1Cl (racemic) [Example 34, rac-4-Chloro-1H-indole-5-carboxylic acid [2-(2,4-difluoro-phenyl)-2-morpholin-4-yl-ethyl]-amide] | 61
Cc1ncc(C(CNC(=O)c2cc(CC(C)C)c3[nH]ccc3c2Cl)N2CCOCC2)cn1 (racemic) [Example 98, rac-4-Chloro-7-isobutyl-1H-indole-5-carboxylic acid [2-(2-methyl-pyrimidin-5-yl)-2-morpholin-4-yl-ethyl]-amide] | 10
Cc1ncc(C(CNC(=O)c2ccc3[nH]ccc3c2Cl)NC2CCCC2)cn1 (racemic) [Example 83, rac-4-Chloro-1H-indole-5-carboxylic acid [2-cyclopentylamino-2-(2-methyl-pyrimidin-5-yl)-ethyl]-amide] | 162
